{
  "source": "patent US5559152A",
  "about": "“Pharmaceutical composition having antiacoholic activity” (priority 1994, dated 1996)",
  "key": {"[1]": {"test_system": "rats subjected to gamma-irradiation", "settings": "16 Gy, 100 mg/kg i.p. 30 min before irradiation", "protocol": "This preparation was given i.p. to a group of 10 animals 30 min. before the irradiation in the dosage of 100 mg/kg of animal weight."}, "patients": {"test_system": "patients", "settings": "background; cited from earlier work"}, "stomach mucosa [2]": {"test_system": "stomach mucosa", "description": "The diagnoses were verified on the basis of all presently used methods for diagnosing gastroenterological diseases. […] Pentagastrin in the dosage of 6 μg/kg of body weight and histamine in the dosage of 0.1 ml of 0.1% solution were used as comparative preparations. […] Having deciphered pH-gramms, pH levels, \"alkaline time\" (AT), hydrogen ions secretion rate (HISR), kinetic function of acid formation (KFA) were determined.\nFor this purpose the characteristics of stomach acid-forming function were studied in these volunteers after administering said preparations in different sequences."}, "[3]": {"test_system": "stomach secretion in patients suffering chronic gastritis with pentagastrinrefractive achlorhydria", "assay": "stomach secretion in patients with pentagastrinrefractive achlorhydria", "type": "in vivo, human", "settings": "stimulated secretion; M ± m", "protocol": "Additionally intrastomach pH-metry was carried out (on an empty stomach and after taking the present composition or comparative preparations) using acidograph with aspiratory pH probe. Before introducing the present composition and comparative preparations and after that pH levels were registered and \"alkaline time\" was determined using Noller test. Having deciphered pH-gramms, pH levels, \"alkaline time\" (AT), hydrogen ions secretion rate (HISR), kinetic function of acid formation (KFA) were determined.\nThe effect of the present composition on stomach secretion in patients of this group has been studied."}, "[4]": {"test_system": "stomach secretion in patients suffering chronic gastritis accompanied by stomach and duodenum ulcers", "assay": "stomach secretion in patients with chronic gastritis accompanied by stomach and duodenum ulcers, pentagastrin after present composition", "type": "in vivo, human", "protocol": "The diagnoses were verified on the basis of all presently used methods for diagnosing gastroenterological diseases. […] Additionally intrastomach pH-metry was carried out (on an empty stomach and after taking the present composition or comparative preparations) using acidograph with aspiratory pH probe. Before introducing the present composition and comparative preparations and after that pH levels were registered and \"alkaline time\" was determined using Noller test. Having deciphered pH-gramms, pH levels, \"alkaline time\" (AT), hydrogen ions secretion rate (HISR), kinetic function of acid formation (KFA) were determined."}, "[5]": {"test_system": "stomach secretion in patients suffering chronic gastritis", "assay": "comparative study of pentagastrin and present composition in patients suffering chronic gastritis", "type": "in vivo, human", "description": "With intragastric pH-metry initial levels of pH in these patients varied from 3.5 to 6.8, and after Noller test these levels increased to alkaline values (8-9) which levels remained the same during the test period (1-1.5 hours)."}, "[6]": {"test_system": "rats subjected to gamma-irradiation", "settings": "rodents; cited from earlier work"}, "[7]": {"test_system": "rats (acute alcohol intoxication)"}, "succinate dehydrogenase": {"test_system": "succinate dehydrogenase", "settings": "mice; 4 mg/kg intrastomach, 40 min; M ± m"}, "stomach mucosa [8]": {"test_system": "stomach mucosa", "settings": "3.6 mg/kg, dogs"}, "stomach mucosa [9]": {"test_system": "stomach mucosa", "settings": "mice, 3.5 mg/kg intrastomach, 35-45 min; M ± m", "description": "(§1) Stomachs were washed with water through cardiac opening and the washing from the antral opening were collected. Stomach contents (5 ml of washings) were used to determine pH, pepsin and total protein content. Stomach was refilled with water, frozen in cryostate and serial section having the thickness of 6-8 microns were made beginning from low curvature and parallel to stomach longer axis. In the sections of stomach bottom and body having a total weight of 50-90 mg, protein and nucleic acids content was determined."}, "[10]": {"test_system": "stomach and liver tissues", "settings": "in 100 mg of tissue; 3.5 mg/kg; M ± m", "description": "as §1"}, "[11]": {"settings": "histamine stimulated secretion, an hour after present composition"}, "[12]": {"settings": "secretion in 1 h after histamine injection"}, "[13]": {"settings": "secretion in interval between stimulators (after histamine)"}, "[14]": {"settings": "stimulated secretion, pentagastrin a day after present composition, M ± m"}},
  "note": "Where two headings read alike, the source gives them in different places.",
  "data": [
    {"smiles": "N[C@@H](CCC(=O)N[C@@H](CS)C(=O)NCC(=O)O)C(=O)O", "note": "[glutathione]", "values": [
      {"measurement": "mortality", "setting": "[1]", "result": 100, "unit": "%"},
      {"measurement": "life-time of rats", "setting": "[1]; control 6.9 days", "result": 10.2, "unit": "days"}
    ]},
    {"smiles": "NCCc1c[nH]cn1", "note": "[histamine]", "values": [
      {"measurement": "complications / side effects", "setting": "patients", "result": "nettle-rash,larynx edema, anaphylactic shock"},
      {"measurement": "effects on stomach acid-forming function (duration and intensity), present composition versus histamine", "setting": "stomach mucosa [2]; Tables 23 and 24", "result": "identical effects on stomach acid-forming function"},
      {"measurement": "Free hydrochloric acid", "setting": "stomach mucosa [2]; histamine secretion, M ± m", "result": "6.5 ± 0.27", "unit": "meq./liter"},
      {"measurement": "Total hydrochloric acid", "setting": "stomach mucosa [2]; histamine secretion, M ± m", "result": "8.00 ± 0.29", "unit": "meq./liter"},
      {"measurement": "Free hydrochloric acid", "setting": "stomach mucosa [2]; [11]", "result": "3.90 ± 0.11", "unit": "meq/liter"},
      {"measurement": "Total hydrochloric acid", "setting": "stomach mucosa [2]; [11]", "result": "4.70 ± 0.12", "unit": "meq/liter"},
      {"measurement": "Free hydrochloric acid", "setting": "stomach mucosa [2]; [12]", "result": "6.92 ± 0.73", "unit": "meq/liter"},
      {"measurement": "Total hydrochloric acid", "setting": "stomach mucosa [2]; [12]", "result": "4.6 ± 0.5", "unit": "meq/liter"},
      {"measurement": "Free hydrochloric acid", "setting": "stomach mucosa [2]; [13]", "result": "15.3 ± 1.4", "unit": "meq./liter"},
      {"measurement": "Total hydrochloric acid", "setting": "stomach mucosa [2]; [13]", "result": "15.8 ± 1.6", "unit": "meq./liter"}
    ]},
    {"smiles": "CSCC[C@H](NC(=O)[C@H](Cc1c[nH]c2ccccc12)NC(=O)CCNC(=O)OC(C)(C)C)C(=O)N[C@@H](CC(=O)O)C(=O)N[C@@H](Cc1ccccc1)C(N)=O", "note": "[pentagastrin]", "values": [
      {"measurement": "Acid secretion", "setting": "[3]", "result": "15.25 ± 0.86", "unit": "%"},
      {"measurement": "Acidity", "setting": "[3]", "result": "0 ± 0", "unit": "mmol per liter"},
      {"measurement": "Hydrochloric acid debit", "setting": "[3]", "result": "0 ± 0", "unit": "mmol per hour"},
      {"measurement": "Pepsin content", "setting": "[3]", "result": "0 ± 0", "unit": "mg per ml"},
      {"measurement": "Pepsin debit", "setting": "[3]", "result": "0 ± 0", "unit": "mg per hour"},
      {"measurement": "Stomach contents volume", "setting": "[3]", "result": "0.067 ± 0.15", "unit": "liter per hour"},
      {"measurement": "effect on stomach secretion, comparison of the both preparations", "setting": "[4]; chronic gastritis accompanying stomach and duodenum ulcers, p<0.5", "result": "nearly the same effect on stomach secretion"},
      {"measurement": "effects when present composition administered in a week after pentagastrin", "setting": "[4]; p<0.5", "result": "nearly identical"},
      {"measurement": "Pepsin debit", "setting": "[4]; stimulated secretion, pentagastrin a day after present composition, M ±", "result": "5.0 ± 1.05", "unit": "mg/h"},
      {"measurement": "Hydrochloric acid debit", "setting": "[4]; [14]", "result": "17 ± 1.44", "unit": "mmol/h"},
      {"measurement": "Secretion volume", "setting": "[4]; [14]", "result": "178 ± 12.7", "unit": "mL"},
      {"measurement": "pH", "setting": "[4]; [14]", "result": "1.4 ± 0.14"},
      {"measurement": "acidity, pepsin content, hydrochloric acid debit and pepsin debit", "setting": "[5]; 12 refractory patients", "result": "remained at zero levels"},
      {"measurement": "intragastric pH after stimulation", "setting": "[5]; 12 refractory patients, from 6.51±1.06, p<0.25", "result": "4.69±0.92"},
      {"measurement": "AT reduction in Noller test", "setting": "[5]; 12 refractory patients, p<0.5", "result": "did not cause AT reduction"},
      {"measurement": "patients refractory", "setting": "[5]; chronic gastritis, pentagastrin 6 μg/kg", "result": "12 of 50"},
      {"measurement": "effect on stomach secretion, comparison of the both preparations", "setting": "[5]; patients suffering chronic gastritis, p<0.5", "result": "nearly the same effect on stomach secretion"}
    ]},
    {"smiles": "O=C(O)CCC(=O)O", "note": "[succinic acid]", "values": [
      {"measurement": "effective dosage (radioprotective)", "setting": "[6]", "result": "2.7 g/kg of animal weight"},
      {"measurement": "Duration of on-side position, single ethanol injection", "setting": "[7]; 1.85 mg/kg intrastomach 40 min before 25% ethanol 3.5 g/kg i.p., M ± m", "result": "1.6 ± 1.1", "unit": "min"},
      {"measurement": "Duration of on-side position, repeated ethanol injection", "setting": "[7]; 1.85 mg/kg intrastomach, second 25% ethanol 3 g/kg, 60 min after leaving on-side position, M ± m", "result": "24.9 ± 3.8", "unit": "min"},
      {"measurement": "alcoprotective detoxifying activity compared", "setting": "[7]; after a single ethanol injection, versus claimed composition", "result": "higher alcoprotective detoxifying activity than the claimed composition"},
      {"measurement": "succinate dehydrogenase activity in liver", "setting": "succinate dehydrogenase", "result": "21.8 ± 0.6 nanomoles of formazan of p-nit"},
      {"measurement": "succinate dehydrogenase activity in stomach", "setting": "succinate dehydrogenase", "result": "26.3 ± 3.0 nanomoles of formazan of p-nit"},
      {"measurement": "succinate dehydrogenase activity of lymphocytes", "setting": "succinate dehydrogenase", "result": "643. ± 5.1 granules of formazan of p-nitr"},
      {"measurement": "time after introduction at which effect on stomach secretion abated", "setting": "stomach mucosa [8]", "result": 20, "unit": "min"},
      {"measurement": "stimulation of stomach glands and fermentative activity", "setting": "stomach mucosa [8]; versus present composition", "result": "less expressed results"},
      {"measurement": "Pepsin amount in stomach contents", "setting": "stomach mucosa [9]", "result": "18.7 ± 2.1", "unit": "µg"},
      {"measurement": "Total protein amount in stomach contents", "setting": "stomach mucosa [9]", "result": "3.9 ± 0.9", "unit": "mg"},
      {"measurement": "pH of stomach contents", "setting": "stomach mucosa [9]", "result": "5.7 ± 0.2"},
      {"measurement": "Liver DNA content", "setting": "[10]", "result": "15.6 ± 2.7", "unit": "µg"},
      {"measurement": "Liver RNA content", "setting": "[10]", "result": "74.5 ± 4.4", "unit": "µg"},
      {"measurement": "Liver protein content", "setting": "[10]", "result": "14.4 ± 1.2", "unit": "mg"},
      {"measurement": "Stomach DNA content", "setting": "[10]", "result": "13.1 ± 1.1", "unit": "µg"},
      {"measurement": "Stomach RNA content", "setting": "[10]", "result": "70.0 ± 4.7", "unit": "µg"},
      {"measurement": "Stomach protein content", "setting": "[10]", "result": "12.1 ± 0.9", "unit": "mg"}
    ]}
  ]
}
